These results are taken from US4119729A, “Alkylsulfonylphenoxypropanolamine therapeutic process” (Mead Johnson & Company, priority 1977, dated 1978).

Where two headings read alike, the source gives them in different places.

Series [1] relates to spontaneous hypertensive rat. Kind of series: blood pressure lowering in the spontaneous hypertensive rat. The class given is in vivo. The conditions noted are these: oral dose of 100 mg./kg. body weight. Here is the method:
For the purpose of treating hypertension in a mammal, the antihypertensive process of the instant invention is carried out by systemically administering to a mammal in need of such treatment an antihypertensive effective amount of a compound selected from the group characterized by Formula I or preferably by Formula X or a pharmaceutically acceptable non-toxic acid addition salt thereof. By systemic administration, it is intended to include both oral and parenteral routes. Examples of parenteral administration are intramuscular, intravenous, intraperitoneal,rectal, and subcutaneous administration. The dosage will vary with the form of administration and the particular compound chosen. However, from about 0.3 mg. per kg. body weight to 100 mg. per kg. body weight of a compound characterized by Formula I administered in effective single or multiple dosage units is generally satisfactory. In accordance with conventional clinical practice, the antihypertensive agent is administered at a dosage substantially less than the dose of the compound thought to be effective. Thereafter, the dosage is increased by small increments until the optimum antihypertensive effect under the circumstances is reached. At effective antihypertensive dosage levels, the compounds of this invention are substantially free of harmful or deleterious side effects. […]

In series [2] the test system is β-Adrenergic Receptor. Briefly: spontaneously beating rabbit atrial preparation, β-adrenergic receptor antagonist molar potency. An excerpt: (§1) Cardioselective β1 -adrenergic blocking activity of the compounds of the present invention can be assessed in standard in vitro pharmacological test systems such as the spontaneously beating rabbit atrial preparation and the guinea pig tracheal preparation.
(§2) A Comparison of β-Adrenergic Receptor Antagonist Molar
(§3) Potencies Determined in Rabbit Atrial and Guinea
(§4) Pig Tracheal Preparations

Series [3] relates to β-Adrenergic Receptor. Briefly: guinea pig tracheal preparation, β-adrenergic receptor antagonist molar potency. The conditions noted are these: molar potency relative to propranolol = 1.
Source text: as §1, §2, §3, §4

Series [4] deals with isoproterenol-induced increased contractile force and heart rate. Kind of series: inhibition of isoproterenol-induced increased contractile force and heart rate in the anesthetized dog. It is filed as in vivo. As to conditions: Canis lupus familiaris, intravenous, isoproterenol challenge 0.2 mcg./kg. intravenous. The source says:
A preferred compound of this invention, 1-(isopropylamino)-3-[4-(methylsulfonyl)-3-tolyloxy]-2-propanol hydrochloride, inhibits increased contractile force and heart rate in the anesthetized dog induced by a standard challenge dose of 0.2 mcg./kg.

Series [5] can be described thus: acute toxicity (LD50) in the rat. The conditions noted are these: in vivo, po.
The nature of series [6]: acute toxicity (LD50) in the mouse. The conditions noted are these: in vivo.

As to `Cc1cc(OCC(O)CNC(C)COc2ccccc2)ccc1S(C)(=O)=O` (stereo not drawn) [3-[4-(methylsulfonyl)-m-tolyloxy]-1-(1-phenoxy-2-propylamino)-2-propanol], the lowered blood pressure entry in series [1] is given as “about 22.4 mm Hg”.
As for `Cc1cc(OCC(O)CNC(C)C)ccc1S(C)(=O)=O.Cl` (stereo not drawn) [1-(ISOPROPYLAMINO)-3-[4-(METHYLSULFONYL)-m-TOLYLOXY]-2-PROPANOL HYDROCHLORIDE], the “Potency Ratio Atria” value with β-Adrenergic Receptor [2] (molar potency relative to propranolol = 1, rabbit atrial preparation) came out at 0.37. The “Cardioselectivity Ratio: Atria/Trachea” value with β-Adrenergic Receptor [2] (ratio of potency ratios, rabbit atria / guinea pig trachea) was 37. Moreover, the “Potency Ratio Trachea” value in the series with β-Adrenergic Receptor [3] was determined as 0.01. In addition, the 50% effective dose (ED50) (in general, the midpoint of the dose-response relation) in series [4] (read-out: ED50, inhibition of increased contractile force) came out at 0.71 mg/kg; in series [4] (read-out: ED50, inhibition of increased heart rate), 2.02 mg/kg. In addition, the 50% lethal dose (LD50) (as a rule, the dose at which mortality reaches 50%) in series [5] is 1790 mg/kg; in series [6] (ip, read-out: intraperitoneal LD50) it was 339 mg/kg; in series [6] (po, read-out: oral LD50), 1500 mg/kg.
